From patent publication US5859016A, “Memory enhancing and anti-dementia agent containing dehydroevodiamine HC1 as active ingredient” (priority 1995, dated 1999) come the findings set out here.

Structures are written as SMILES. pIC50: −log10 of the molar value. Counter-ions that a name gives are not always drawn.

For data set [1], the system named is scopolamine induced amnesia. Kind of data set: Passive avoidance test, scopolamine induced amnesia. In kind it is in vivo. As to conditions: rats. On the procedure: Male Sprague-Dawley rates weighing 200~250 g (12~16 weeks) which had been maintained on a 12 h/12 h light-dark cycle were used for a passive avoidance test. Food and water were available ad libitum. An automated system with a shuttle box (Model PACS-30, Columbus Instruments International Company) was used to evaluate the effects of the extracts on learning and memory essentially as described (11). The shuttle box was divided into two chambers of equal size (19"L×9"W×10.875"H). These compartments were separated by a guillotine door (3" L×2.625" W). A light chamber is equipped with an illuminator. Rats can go to the dark chamber through a guillotine door. […]
At 24 hours after the training trial, scopolamine (1 mg/kg) or the same volume of saline was intraperitoneally injected to the rats. […] At 24 hours after the acquisition trial, the rat was again placed in the light compartment and latency to enter the dark compartment was measured for 180 sec (retention trial).
To investigate the effects of repeated administration of DHED, a repeated administration of DHED was intraperitoneally given to the rats at a dose of 6.25 mg/kg. Except for the fact that DHED (6.25 mg/kg) was given to the rats once a day for 5 days before the treatment with scopolamine, the latency time was measured in the same manner as in the single administration.

A short description of data set [2]: Single toxicity study, lethality by a single oral administration. In kind it is in vivo, rats. Conditions: rat, in vivo; after a single administration (oral). On the procedure: (§1) A single toxicity study of the anti-dementia agent according to this invention was measured using rats. […] The lethality results by a single oral administration of DHED are as follows: […]

In a further data set the test system is rats. The data set is described as above. In kind it is in vivo. As to conditions: single oral, 14 days. How it is done: as §1
The next data set addresses T1, AChE (Mus musculus, UniProt P21836).
T1 construct: The resulting supernatant was used as an AChE source; from tissue; host or cells: mouse cerebral cortex (detergent-extracted supernatant)
Kind of data set: Determination of AChE inhibitory activity (Ellman reagent, acetylthiocholine iodide). It counts as biochemical, mice. How it is done: In order to determine AChE inhibitory activity on each of the 20 subfractions obtained from EXAMPLE 1, 10 volumes of phosphate buffer solution (12.5 mM phosphate buffer solution at pH 7.0, including 400 mM NaCl) was added to the cerebral cortex of mice, homogenized in a Potter-Elvehjem homogenizer and centrifuged at 1,000 g for 10 min to obtain the supernatant. After adding homogenized buffer containing 0.5% triton X-100 to the supernatant, the mixtures were stirred for 30 min and centrifuged again at 10,000 for 10 min. The resulting supernatant was used as an AChE source. All extract steps were carried out at 4° C.
The freeze-dried 20 subfraction extracts of EXAMPLE 1 were initially dissolved in small amounts of distilled water and DMSO. The solution was diluted at a concentration of 200 μg/ml in phosphate buffer (100 mM sodium phosphate, pH 8.0; hereinafter called "buffer solution I"). 1.5 ml of each extract was mixed with 1.5 ml of buffer solution I, 20 μl of 75 mM acetylthiocholine iodide solution and 100 μl of buffered Ellmans reagent [10 mM DTNB (5,5-dithiobis-(2-nitrobenzoic acid)) and 17.85 mM NaHCO3 ] and incubated at 25° C. for 10 min. Absorbance was read at 410 nm immediately after adding an enzyme to the above reaction mixtures. Reading was repeated for 5 min at 30 sec intervals in order to determine AChE inhibitory activity on each subfraction. A blank control reaction was measured by substituting saline for the enzyme.
AChE activity was calculated with the absorption coefficient […]. The inhibition efficacy was expressed as a percentage of enzyme activity inhibited compared with the control value (100%).
All experiments were repeated five times, and the results were analyzed by a Wilcoxon-rank sum test and Median 2-sample test.
(In Ellman's method for cholinesterases, released thiocholine reacts with DTNB.)

As usually defined, the LD50 is the dose expected to kill half of the subjects tested. A higher LD50 goes with a less toxic substance.

T1 sequence (P21836 32-614): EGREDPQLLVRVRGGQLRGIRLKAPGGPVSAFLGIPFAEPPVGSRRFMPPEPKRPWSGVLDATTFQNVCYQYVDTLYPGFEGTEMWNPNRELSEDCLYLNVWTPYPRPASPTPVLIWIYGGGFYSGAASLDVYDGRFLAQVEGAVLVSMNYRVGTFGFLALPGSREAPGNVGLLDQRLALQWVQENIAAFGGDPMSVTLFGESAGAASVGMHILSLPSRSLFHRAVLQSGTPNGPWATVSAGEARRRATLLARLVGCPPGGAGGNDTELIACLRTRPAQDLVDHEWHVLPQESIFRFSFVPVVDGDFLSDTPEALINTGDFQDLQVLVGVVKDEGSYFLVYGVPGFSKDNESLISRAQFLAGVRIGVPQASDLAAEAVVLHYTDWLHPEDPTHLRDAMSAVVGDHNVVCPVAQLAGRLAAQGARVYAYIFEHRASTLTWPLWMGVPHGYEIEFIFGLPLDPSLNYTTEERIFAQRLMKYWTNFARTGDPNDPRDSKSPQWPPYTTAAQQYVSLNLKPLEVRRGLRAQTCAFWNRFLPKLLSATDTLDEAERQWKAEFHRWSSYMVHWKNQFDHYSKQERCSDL

On to `C[n+]1c2n(c(=O)c3ccccc31)CCc1c-2[nH]c2ccccc12` [DHED, dehydroevodiamine-HCl], for which, in data set [1] (6.25 mg/kg intraperitoneally once a day for 5 days before scopolamine 1 mg/kg, FIG. 6), the “memory enhancement (latency in retention trial), repeated administration” value was “may improve memory enhancement”. Further, the “memory enhancement (latency in retention trial), single administration” value in data set [1] (6.25 mg/kg intraperitoneally, single, scopolamine 1 mg/kg, FIG. 5) was “significant memory enhancement”. In data set [2], this compound registered an LD50 of 2000 mg/kg. Moreover, the Mortality in the data set with rats (female, 1,000 mg/kg) was 1/5; with rats (female, 1,500 mg/kg), 2/5; in the data set on rats (female, 2,000 mg/kg), 0/5; with rats (female, 3,000 mg/kg) it was 5/5; in the data set with rats (female, 4,000 mg/kg) it was 5/5; in the data set with rats (male, 1,000 mg/kg), 0/5. The Mortality is on record as 0/5 with rats (male, 1,500 mg/kg); 5/5 in the data set on rats (male, 2,000 mg/kg); 4/5 in the data set on rats (male, 3,000 mg/kg); 5/5 in the data set on rats (male, 4,000 mg/kg). For the same compound, the pIC50 on AChE (AChE source from cerebral cortex of mice, FIG. 3, read-out: concentration required for 50% enzyme inhibition (IC50) of AChE) was 4.42. Moreover, the “inhibitory effect on AChE, dose dependence” value at AChE (FIG. 3) was “strong inhibitory effect on AChE in a dose-dependent manner”. For the same compound, at AChE (substrate 23 to 230 μM, DHED 40 μM, FIG. 4), the “manner of AChE inhibition (Lineweaver-Burke plots)” value is “non-competitive”.
